Measurements: US20230324373A1, “PYRUVIC ACID OPTICAL PROBE, PREPARATION METHOD THEREFOR, AND APPLICATION THEREOF” (East China University of Science and Technology, priority 2020, published 2023)

Assay: titration curve of pyruvate optical sensor (concentration gradient pyruvate detection)
Assay type: binding
Settings: pyruvate concentration gradient
Description: 6. Take 100 μl of 1 μM protein solution, incubate at 37° C. for 5 minutes, add pyruvate for titration, and measure the fluorescence intensity of the protein emitted at 528 nm after fluorescence excitation at 485 nm. The fluorescence excitation and emission measurement of the samples were completed by a multifunctional fluorescence microplate reader.

Substance	change of the ratio of fluorescence intensity at 528 nm after excitation at 420 nm and at 485 nm [times]
141/143-R191S/R192T: cpYFP at 141/143 of PdhR(96-254), mutations R191S/R192T	3.9
141/143-S190T/R191Q/R192E: cpYFP at 141/143 of PdhR(96-254), mutations S190T/R191Q/R192E	2.7
192/195: optical sensor with cpYFP inserted at site 192/195 of PdhR(96-254)	8.3
141/143: optical sensor with cpYFP inserted at site 141/143 of PdhR(96-254)	2.0
192/194-M194V-S190E/R191N/R192D: cpYFP at 192/194 of PdhR(96-254), mutations M194V/S190E/R191N/R192D	13.1
141/143-S190P/R191H/R192P: cpYFP at 141/143 of PdhR(96-254), mutations S190P/R191H/R192P	3.2
192/194-M194V: cpYFP at 192/194 of PdhR(96-254), mutation M194V (family SEQ ID NO: 22; coding sequence SEQ ID NO: 31)	9.7
141/143-S 190L/R191V: cpYFP at 141/143 of PdhR(96-254), mutations S190L/R191V	4.2
141/143-S190R/R191S/R192P: cpYFP at 141/143 of PdhR(96-254), mutations S190R/R191S/R192P	3.1

Same assay, conditions: ratio of fluorescence at 528 nm, excitation 420 nm and 485 nm; read-out: Kd (binding constant)

Substance	Kd [µM]
141/143-R191S/R192T: cpYFP at 141/143 of PdhR(96-254), mutations R191S/R192T	164
141/143: optical sensor with cpYFP inserted at site 141/143 of PdhR(96-254)	28
141/143-S 190L/R191V: cpYFP at 141/143 of PdhR(96-254), mutations S190L/R191V	185
141/143-S190R/R191S/R192P: cpYFP at 141/143 of PdhR(96-254), mutations S190R/R191S/R192P	158

The remaining lines, values ahead:

Kd [µM]	Substance
186	141/143-S190T/R191Q/R192E: cpYFP at 141/143 of PdhR(96-254), mutations S190T/R191Q/R192E
19900	192/195: optical sensor with cpYFP inserted at site 192/195 of PdhR(96-254)
1070	192/194-M194V-S190E/R191N/R192D: cpYFP at 192/194 of PdhR(96-254), mutations M194V/S190E/R191N/R192D
84	141/143-S190P/R191H/R192P: cpYFP at 141/143 of PdhR(96-254), mutations S190P/R191H/R192P
475	192/194-M194V: cpYFP at 192/194 of PdhR(96-254), mutation M194V (family SEQ ID NO: 22; coding sequence SEQ ID NO: 31)

Assay: specificity of purified pyruvate optical sensors
Assay type: biochemical
Settings: purified sensor

Substance	specificity
PdhR(96-254)-192/194-M194V/S190D/R191Y/R192T-cpYFP: cpYFP at 192/194 of PdhR(96-254), mutations M194V/S190D/R191Y/R192T	good specificity
141/143: optical sensor with cpYFP inserted at site 141/143 of PdhR(96-254)	good specificity
192/194-M194V-S190E/R191N/R192D: cpYFP at 192/194 of PdhR(96-254), mutations M194V/S190E/R191N/R192D	good specificity
192/194-M194V: cpYFP at 192/194 of PdhR(96-254), mutation M194V (family SEQ ID NO: 22; coding sequence SEQ ID NO: 31)	good specificity

Assay: fluorescence spectra of purified sensor treated with 0 mM and 10 mM pyruvate
Assay type: biochemical
Settings: 10 minutes
Description: 7. Take 100 μl of 1 μM protein solution, incubate at 37° C. for 5 minutes, add pyruvate, and measure the absorption and fluorescence spectra of the protein. The determination of the absorption spectrum and fluorescence spectrum of the sample is completed by a spectrophotometer and a fluorescence spectrophotometer.
Exemplarily, after the purified pyruvate optical sensor PdhR(96-254)-192/194-M194V-cpYFP was treated with 0 mM and 10 mM pyruvate for 10 minutes, respectively, the fluorescence spectrum was detected using a fluorescence spectrophotometer.
Determination of excitation spectra: Excitation spectra were recorded with an excitation range of 350 nm to 500 nm and an emission wavelength of 530 nm, with readings every 5 nm.
Determination of emission spectra: excitation spectra were recorded with an fixed excitation wavelength of 420 nm and 490 nm and an emission range of 505-600 nm, read every 5 nm.

Substance	fluorescence intensity excited at 420 nm relative to 0 mM pyruvate [times]	fluorescence intensity excited at 490 nm relative to 0 mM pyruvate [times]
192/194-M194V: cpYFP at 192/194 of PdhR(96-254), mutation M194V (family SEQ ID NO: 22; coding sequence SEQ ID NO: 31)	0.6	5.8
